Test results published in PubChem BioAssay AID342 (DTP/NCI, 2004).
Where “and” joins values, the source holds several entries; their conditions need not be identical. Equal values may be shown once.

Tested on: Swiss mice, Sarcoma 180 sc, mean tumor weight T/C
Experiment: NCI In Vivo Anticancer Drug Screen. Data for tumor model Sarcoma 180 (subcutaneous) in Swiss mice
Conditions: endpoint: mean tumor weight, higher = larger tumour
How it was run: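 Transplantable tumors were established in mice, compound was given, then survival or tumor size was recorded. The treated value was divided by the vehicle-control value.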

[1] = dose: 25.0 mg/kg/injection, schedule: Q01DX007 (ip), vehicle: carboxymethylcellulose (CMC)
[2] = dose: 25.0 mg/kg/injection, schedule: Q01DX007 (ip), vehicle: saline
[3] = dose: 50.0 mg/kg/injection, schedule: Q01DX007 (ip), vehicle: saline
[4] = dose: 15.0 mg/kg/injection, schedule: Q01DX007 (ip), vehicle: saline
[5] = dose: 125.0 mg/kg/injection, schedule: Q01DX007 (ip), vehicle: carboxymethylcellulose (CMC)

SMILES: O=c1[nH]c(=O)c2n[nH]nc2[nH]1
- T/C (dose: 0.25 mg/kg/injection, schedule: Q#A X014 (ip), vehicle: carboxymethylcellulose (CMC)): 122 % of control
- T/C (dose: 0.5 mg/kg/injection, schedule: Q#A X014 (ip), vehicle: carboxymethylcellulose (CMC)): 102 % of control
- T/C (dose: 2.0 mg/kg/injection, schedule: Q#A X014 (ip), vehicle: carboxymethylcellulose (CMC)): 114 % of control
- T/C (dose: 86.28 mg/kg/injection, schedule: Q01DX007 (ip), vehicle: carboxymethylcellulose (CMC)): 68 % of control
- T/C (dose: 172.57 mg/kg/injection, schedule: Q01DX007 (ip), vehicle: carboxymethylcellulose (CMC)): 49 % of control
- T/C (dose: 345.15 mg/kg/injection, schedule: Q01DX007 (ip), vehicle: carboxymethylcellulose (CMC)): 102 % of control
- T/C (dose: 690.3 mg/kg/injection, schedule: Q01DX007 (ip), vehicle: carboxymethylcellulose (CMC)): 51 % of control

SMILES: [N-]=[N+]=C1N=CN=C1c1ncn[nH]1
- T/C [1]: 107 % of control
- T/C (dose: 50.0 mg/kg/injection, schedule: Q01DX007 (ip), vehicle: carboxymethylcellulose (CMC)): 69 % of control

SMILES: CN(C)/N=N/c1nc[nH]c1C(N)=O
- T/C (dose: 11.0 mg/kg/injection, schedule: Q01DX007 (ip), vehicle: saline): 58 % of control
- T/C (dose: 12.5 mg/kg/injection, schedule: Q#A X014 (ip), vehicle: methylcellulose (MC)): 68 % of control
- T/C (dose: 20.0 mg/kg/injection, schedule: Q01DX007 (ip), vehicle: carboxymethylcellulose (CMC)): 89 % of control
- T/C (dose: 22.0 mg/kg/injection, schedule: Q01DX007 (ip), vehicle: saline): 62 % of control
- T/C (dose: 25.0 mg/kg/injection, schedule: Q#A X014 (ip), vehicle: methylcellulose (MC)): 43 % of control
- T/C (dose: 40.0 mg/kg/injection, schedule: Q01DX007 (ip), vehicle: carboxymethylcellulose (CMC)): 62 % of control
- T/C (dose: 44.0 mg/kg/injection, schedule: Q01DX007 (ip), vehicle: carboxymethylcellulose (CMC)): 23 % of control and 43 % of control
- T/C (dose: 50.0 mg/kg/injection, schedule: Q#A X014 (ip), vehicle: methylcellulose (MC)): 29 % of control
- T/C (dose: 66.0 mg/kg/injection, schedule: Q01DX007 (ip), vehicle: carboxymethylcellulose (CMC)): 28 % of control and 53 % of control
- T/C (dose: 100.0 mg/kg/injection, schedule: Q01DX007 (ip), vehicle: carboxymethylcellulose (CMC)): 28 % of control and 29 % of control
- T/C (dose: 150.0 mg/kg/injection, schedule: Q01DX007 (ip), vehicle: carboxymethylcellulose (CMC)): 19 % of control and 23 % of control
- T/C (dose: 160.0 mg/kg/injection, schedule: Q01DX007 (ip), vehicle: carboxymethylcellulose (CMC)): 51 % of control and 73 % of control
- T/C (dose: 225.0 mg/kg/injection, schedule: Q01DX007 (ip), vehicle: carboxymethylcellulose (CMC)): 21 % of control
- T/C (dose: 320.0 mg/kg/injection, schedule: Q01DX007 (ip), vehicle: carboxymethylcellulose (CMC)): 39 % of control and 45 % of control
- T/C (dose: 640.0 mg/kg/injection, schedule: Q01DX007 (ip), vehicle: carboxymethylcellulose (CMC)): 25 % of control

SMILES: COc1ccc(-c2cc(=O)c3c(O)c(OC)c(O)cc3o2)cc1
- T/C [2]: 73 % of control
- T/C [3]: 79 % of control
- T/C (dose: 100.0 mg/kg/injection, schedule: Q01DX007 (ip), vehicle: saline): 85 % of control

SMILES: CCCOP(=S)(N1CC1)N1CC1
- T/C (dose: 6.65 mg/kg/injection, schedule: Q#A X014 (ip), vehicle: methylcellulose (MC)): 74 % of control
- T/C (dose: 6.65 mg/kg/injection, schedule: Q#A X014 (ip), vehicle: saline): 80 % of control and 89 % of control
- T/C (dose: 10.0 mg/kg/injection, schedule: Q#A X014 (ip), vehicle: methylcellulose (MC)): 67 % of control
- T/C (dose: 15.0 mg/kg/injection, schedule: Q#A X014 (ip), vehicle: methylcellulose (MC)): 47 % of control
- T/C (dose: 15.0 mg/kg/injection, schedule: Q#A X014 (ip), vehicle: saline): 37 % of control and 40 % of control

SMILES: NC(=O)NO
- T/C (dose: 16.0 mg/kg/injection, schedule: Q01DX007 (ip), vehicle: carboxymethylcellulose (CMC)): 89 % of control
- T/C (dose: 32.0 mg/kg/injection, schedule: Q01DX007 (ip), vehicle: carboxymethylcellulose (CMC)): 111 % of control
- T/C (dose: 64.0 mg/kg/injection, schedule: Q01DX007 (ip), vehicle: carboxymethylcellulose (CMC)): 112 % of control
- T/C (dose: 128.0 mg/kg/injection, schedule: Q01DX007 (ip), vehicle: carboxymethylcellulose (CMC)): 69 % of control

SMILES: Nc1nc2ncc(CNc3ccc(C(=O)NC(CCC(=O)O)C(=O)O)cc3)nc2c(=O)[nH]1 (centres undefined)
- T/C (dose: 6.31 mg/kg/injection, schedule: Q01DX007 (ip), vehicle: carboxymethylcellulose (CMC)): 84 % of control
- T/C (dose: 12.62 mg/kg/injection, schedule: Q01DX007 (ip), vehicle: carboxymethylcellulose (CMC)): 76 % of control
- T/C (dose: 25.25 mg/kg/injection, schedule: Q01DX007 (ip), vehicle: carboxymethylcellulose (CMC)): 56 % of control
- T/C (dose: 50.5 mg/kg/injection, schedule: Q01DX007 (ip), vehicle: carboxymethylcellulose (CMC)): 74 % of control

SMILES: CCCCn1cnc2c(=S)nc(N)[nH]c21
- T/C (dose: 1.65 mg/kg/injection, schedule: Q#A X014 (ip), vehicle: methylcellulose (MC)): 82 % of control
- T/C (dose: 2.5 mg/kg/injection, schedule: Q#A X014 (ip), vehicle: methylcellulose (MC)): 93 % of control
- T/C (dose: 3.75 mg/kg/injection, schedule: Q#A X014 (ip), vehicle: methylcellulose (MC)): 62 % of control
- T/C (dose: 5.5 mg/kg/injection, schedule: Q#A X014 (ip), vehicle: methylcellulose (MC)): 49 % of control

SMILES: CSc1ncnc2c1ncn2C1OC(CO)C(O)C1O (centres undefined)
- T/C (dose: 12.5 mg/kg/injection, schedule: Q01DX007 (ip), vehicle: saline): 72 % of control
- T/C [4]: 88 % of control
- T/C (dose: 17.5 mg/kg/injection, schedule: Q01DX007 (ip), vehicle: saline): 94 % of control
- T/C (dose: 20.0 mg/kg/injection, schedule: Q01DX007 (ip), vehicle: saline): 73 % of control

SMILES: CCCCN(C)N=Nc1ccc(OCC(=O)OCC)cc1
- T/C (dose: 7.0 mg/kg/injection, schedule: Q01DX007 (ip), vehicle: saline): 111 % of control
- T/C (dose: 10.0 mg/kg/injection, schedule: Q01DX007 (ip), vehicle: saline): 93 % of control
- T/C [4]: 111 % of control
- T/C (dose: 23.0 mg/kg/injection, schedule: Q01DX007 (ip), vehicle: saline): 95 % of control

SMILES: C[C@]12CC[C@H](O)C[C@H]1CC[C@@H]1[C@@H]2CC[C@]2(C)[C@@H](C3=CC(=O)OC3)CC[C@]12O
- T/C (dose: 5.0 mg/kg/injection, schedule: Q01DX007 (ip), vehicle: carboxymethylcellulose (CMC)): 79 % of control
- T/C (dose: 10.0 mg/kg/injection, schedule: Q01DX007 (ip), vehicle: carboxymethylcellulose (CMC)): 68 % of control
- T/C [1]: 86 % of control

SMILES: O=C(O)c1cccc2c3c(cc([N+](=O)[O-])c12)CCCC3
- T/C (dose: 1.5 mg/kg/injection, schedule: Q01DX007 (ip), vehicle: carboxymethylcellulose (CMC)): 157 % of control

SMILES: Cc1cc2nc3c(=O)[nH]c(=O)nc-3n(CC(O)C(O)C(O)C(O)CO)c2cc1C (centres undefined)
- T/C (dose: 31.25 mg/kg/injection, schedule: Q01DX007 (ip), vehicle: carboxymethylcellulose (CMC)): 87 % of control
- T/C (dose: 38.25 mg/kg/injection, schedule: Q01DX007 (ip), vehicle: carboxymethylcellulose (CMC)): 54 % of control
- T/C (dose: 62.5 mg/kg/injection, schedule: Q01DX007 (ip), vehicle: carboxymethylcellulose (CMC)): 66 % of control
- T/C (dose: 76.5 mg/kg/injection, schedule: Q01DX007 (ip), vehicle: carboxymethylcellulose (CMC)): 48 % of control
- T/C [5]: 83 % of control
- T/C (dose: 153.0 mg/kg/injection, schedule: Q01DX007 (ip), vehicle: carboxymethylcellulose (CMC)): 63 % of control
- T/C (dose: 250.0 mg/kg/injection, schedule: Q01DX007 (ip), vehicle: carboxymethylcellulose (CMC)): 60 % of control
- T/C (dose: 306.0 mg/kg/injection, schedule: Q01DX007 (ip), vehicle: carboxymethylcellulose (CMC)): 57 % of control

SMILES: CCCCC(=O)OCC1OC(n2cnc3c(=S)nc[nH]c32)C(OC(=O)CCCC)C1OC(=O)CCCC (centres undefined)
- T/C (dose: 75.0 mg/kg/injection, schedule: Q01DX007 (ip), vehicle: carboxymethylcellulose (CMC)): 69 % of control
- T/C [5]: 34 % of control
- T/C (dose: 220.0 mg/kg/injection, schedule: Q01DX007 (ip), vehicle: carboxymethylcellulose (CMC)): 96 % of control
- T/C (dose: 335.0 mg/kg/injection, schedule: Q01DX007 (ip), vehicle: carboxymethylcellulose (CMC)): 81 % of control
- T/C (dose: 750.0 mg/kg/injection, schedule: Q01DX007 (ip), vehicle: carboxymethylcellulose (CMC)): 43 % of control

SMILES: CN(C)[C@@H]1C(=O)C(C(=O)NCNC2(C(=O)O)CCCC2)=C(O)[C@@]2(O)C(=O)C3=C(O)c4c(O)cccc4[C@@](C)(O)[C@H]3C[C@@H]12
- T/C [2]: 103 % of control
- T/C [3]: 67 % of control
- T/C (dose: 62.0 mg/kg/injection, schedule: Q01DX007 (ip), vehicle: saline): 103 % of control
- T/C (dose: 75.0 mg/kg/injection, schedule: Q01DX007 (ip), vehicle: saline): 41 % of control

SMILES: CC[C@]1(O)C[C@H]2CN(CCc3c([nH]c4ccccc34)[C@@](C(=O)OC)(c3cc4c(cc3OC)N(C=O)[C@H]3[C@@](O)(C(=O)OC)[C@H](OC(C)=O)[C@]5(CC)C=CCN6CC[C@]43[C@@H]65)C2)C1
- T/C (dose: 0.12 mg/kg/injection, schedule: Q01DX007 (ip), vehicle: saline): 57 % of control
